Values quoted from earlier work as cited in US8153159B2, “Modafinil modified release pharmaceutical compositions” (Cephalon, Inc., priority 2003, dated 2012).

Experiments:
[1] = tested on: monkeys; details: single administration, Duteil et al. 1990
[2] = tested on: humans; details: Bastuji et al. 1988
[3] = tested on: mice; details: single administration, Duteil et al. 1990

## NC(=O)C[S+]([O-])C(c1ccccc1)c1ccccc1 (stereo not drawn) [Modafinil, 2-(benzhydrylsulfinyl)acetamide]
[1]
  nocturnal activity: increased nocturnal activity
[2]
  treatment of idiopathic hypersomnia and narcolepsy: successfully tested
[3]
  locomotor activity: increased locomotor activity
